The source of these data is patent US20250114338A1, “TETRAHYDRO-PYRIDO[3,4-b]INDOLE ESTROGEN RECEPTOR MODULATORS AND USES THEREOF” (Genentech, Inc., priority 2014, published 2025).

The structures appear in SMILES notation.

This assay deals with ER-alpha MCF7. In words: ER-alpha MCF7 HCS EC50; stated as measured by in vitro cell proliferation assays of Examples 902 and 903. It counts as cell-based. The following applies: Homo sapiens, MCF7, MCF7 cells; Table 2. The method, boiled down:
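MCF7 cells seeded 1000-2000 cells/well for 16 h, then treated with nine-point 1:2 DMSO dilution series in quadruplicate at 37 °C, 5% CO2 for 4 days. Viable cells quantified by CellTiter-Glo ATP luminescence; EC50 calculated. Controls: fulvestrant at final 100 nM, DMSO 0.2% v/v.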
With `C[C@@H]1Cc2c([nH]c3ccccc23)[C@@H](c2c(F)cc(OC3CN(CC4CCCCC4)C3)cc2F)N1CC(C)(C)F` [Example 209, (1R,3R)-1-[4-[1-(cyclohexylmethyl)azetidin-3-yl]oxy-2,6-difluoro-phenyl]-2-(2-fluoro-2-methyl-propyl)-3-methyl-1,3,4,9-tetrahydropyrido[3,4-b]indole], the EC50 was 8 nM.

For `C[C@@H]1Cc2c([nH]c3ccccc23)[C@@H](c2c(F)cc(OCCN3CC(CF)C3)cc2F)N1CCC(F)(F)F` [Example 361, (1R,3R)-1-[2,6-difluoro-4-[2-[3-(fluoromethyl)azetidin-1-yl]ethoxy]phenyl]-3-methyl-2-(3,3,3-trifluoropropyl)-1,3,4,9-tetrahydropyrido[3,4-b]indole], the EC50 was found to be 3 nM. For `C[C@@H]1Cc2c([nH]c3ccccc23)[C@@H](c2c(F)cc(OC3CN(C4COC4)C3)cc2F)N1CC(C)(C)F` [Example 194, (1R,3R)-1-[2,6-difluoro-4-[1-(oxetan-3-yl)azetidin-3-yl]oxy-phenyl]-2-(2-fluoro-2-methyl-propyl)-3-methyl-1,3,4,9-tetrahydropyrido[3,4-b]indole], the EC50 is 0.077 nM. To `C[C@@H]1Cc2c([nH]c3ccc(F)cc23)[C@@H](c2c(F)cc(NC3CN(CCCF)C3)cc2F)N1C[C@@](C)(F)CO` [Example 431, (R)-3-((1R,3R)-1-(2,6-difluoro-4-((1-(3-fluoropropyl)azetidin-3-yl)amino)phenyl)-6-fluoro-3-methyl-1,3,4,9-tetrahydro-2H-pyrido[3,4-b]indol-2-yl)-2-fluoro-2-methylpropan-1-ol] belongs 0.0943 nM. To `C[C@@H]1Cc2c([nH]c3ccccc23)[C@@H](c2c(F)cc(OCCN3CC(CF)C3)cc2F)N1C(=O)CN(C)C` [Example 223, 1-[(1R,3R)-1-[2,6-difluoro-4-[2-[3-(fluoromethyl)azetidin-1-yl]ethoxy]phenyl]-3-methyl-1,3,4,9-tetrahydropyrido[3,4-b]indol-2-yl]-2-(dimethylamino)ethanone] belongs 38 nM.

As for `C[C@@H]1Cc2c([nH]c3ccccc23)[C@@H](c2c(F)cc(OC3CN(CCCF)C3)cc2F)N1CC1(F)CCC1` [Example 393, (1R,3R)-1-(2,6-difluoro-4-((1-(3-fluoropropyl)azetidin-3-yl)oxy)phenyl)-2-((1-fluorocyclobutyl)methyl)-3-methyl-2,3,4,9-tetrahydro-1H-pyrido[3,4-b]indole], the EC50 amounted to 0.142 nM. To `C[C@@H]1Cc2c([nH]c3ccccc23)[C@@H](c2c(F)cc(OCCN3CC(CF)C3)cc2F)N1CC(F)(F)CO` [Example 286, 3-[(1R,3R)-1-[2,6-difluoro-4-[2-[3-(fluoromethyl)azetidin-1-yl]ethoxy]phenyl]-3-methyl-1,3,4,9-tetrahydropyrido[3,4-b]indol-2-yl]-2,2-difluoro-propan-1-ol] belongs 0.0978 nM; to `C[C@@H]1Cc2c([nH]c3ccccc23)[C@@H](c2c(F)cc(OC3CN(CCCF)C3)cc2F)N1CC(C)(C)C#N` [Example 316, 3-[(1R,3R)-1-[2,6-difluoro-4-[1-(3-fluoropropyl)azetidin-3-yl]oxy-phenyl]-3-methyl-1,3,4,9-tetrahydropyrido[3,4-b]indol-2-yl]-2,2-dimethyl-propanenitrile], 0.0724 nM; to `C[C@@H]1Cc2c([nH]c3ccccc23)[C@@H](c2ccc(NCCN3CC(CF)C3)cc2)N1CC(C)(F)CO` (stereo partly drawn) [Example 328, 2-fluoro-3-((1R,3R)-1-(4-((2-(3-(fluoromethyl)azetidin-1-yl)ethyl)amino)phenyl)-3-methyl-1,3,4,9-tetrahydro-2H-pyrido[3,4-b]indol-2-yl)-2-methylpropan-1-ol], 0.167 nM. Next, `CC(C)(F)CN1CCc2c([nH]c3ccccc23)[C@@H]1c1c(F)cc(OCCN2CC(CF)C2)cc1F` [Example 237, (1S)-1-[2,6-difluoro-4-[2-[3-(fluoromethyl)azetidin-1-yl]ethoxy]phenyl]-2-(2-fluoro-2-methyl-propyl)-1,3,4,9-tetrahydropyrido[3,4-b]indole]: 46 nM.

Broadly, the EC50 is the concentration at which the effect is half-maximal.
